Measured values reported in patent US6809214B2, “Shortened synthesis of 3,3-diarylpropylamine derivatives” (Schwartz Pharma AG, priority 2000, dated 2004).
≈ marks a conversion by molar mass, not a printed value. Where a name gives a salt, the structure may show the parent alone.

How the values were obtained:
[1] = Solubilities at ambient temperature; assay type: physicochemical

melting point [°C]	SMILES	further results
85.9	CC(C)OC(=O)c1ccc2c(c1)C(c1ccccc1)CC(=O)O2 (racemic) [Example 5c]	–
97 to 99	COC(=O)c1ccc2c(c1)C(c1ccccc1)CC(=O)O2 (racemic) [Example 5a]	–
143.7	COC(=O)c1ccc(O)c([C@H](CCN(C(C)C)C(C)C)c2ccccc2)c1 [Example 8b, (R)-(−)-3-(3-Diisopropylamino-1-phenylpropyl)-4-hydroxybenzoic acid methyl ester]	–

The remaining lines, values behind:

SMILES	melting point [°C]	further results
O=C1C[C@H](c2ccccc2)c2cc(C(=O)O)ccc2O1 [Example 3, (R)-4-Phenyl-2-chromanone-6-carboxylic acid]	224.9	–
CC(C)N(CC[C@H](c1ccccc1)c1cc(C(=O)O)ccc1O)C(C)C [Example 9, (R)-(−)-3-(Diisopropylamino-1-phenylpropyl)-4-hydroxybenzoic acid]	102.3	–
O=C1C[C@H](c2ccccc2)c2cc(C(=O)O)ccc2O1 (as salt: salt) [Example 3, (R)-4-Phenyl-2-chromanone-6-carboxylic acid]	197.5	–
O=C1CC(c2ccccc2)c2cc(C(=O)O)ccc2O1 (racemic) [Example 1, (R,S)-4-Phenyl-2-chromanone-6-carboxylic acid]	246	–
CC(C)N(CC[C@H](c1ccccc1)c1cc(CO)ccc1O)C(C)C [Example 13, (R)-2-(3-diisopropylamino-1-phenylpropyl)-4-hydroxymethylphenol]	–	solubility ([1]; in water): ~10000 µg/mL (≈ 29.3 mM); solubility ([1]; organic solvent or mixture, in 2-butanone): < 200 µg/mL; solubility ([1]; organic solvent or mixture, in dichloromethane): < 200 µg/mL; solubility ([1]; organic solvent or mixture, in ethyl acetate): < 200 µg/mL; solubility ([1]; organic solvent or mixture, in methanol): > 50000 µg/mL
